# Earlier results as cited in patent US6368586B1, “Methods and compositions for enhancing the bioadhesive properties of polymers” (Brown University Research Foundation, priority 1996, dated 2002).
# Like-named read-outs stand apart in the source and are kept apart here.
Compound,Acid Ionization Constants (pKa at 25° C.) for Aqua Ions,Acid Ionization Constants (pKa at 25° C.) for Aqua Ions (listed as Fe^3+),Acid Ionization Constants (pKa at 25° C.) for Aqua Ions (listed as Ni^3+)
[Al+3] [Al^3+],4.9,,
[Ba+2] [Ba^2+],13.2,,
[Ca+2] [Ca^2+],12.6,,
[Cu+2] [Cu^2+],8.0,,
[Fe+2] [Fe^2+],8.3,2.2,
[Mg+2] [Mg^2+],11.4,,
[Ni+2] [Ni^2+],10.6,,9.7
